# Test results as given in patent US20240268381A1, “Agricultural Chemical Formulation” (ExxonMobil Chemical Patents Inc., priority 2021, published 2024).
# Assays:
# Format in all cases: physicochemical
# [1] = Solvency test, active ingredient bromoxynil octanoate; conditions: wt % active ingredient in solution; highest concentration with no crystals at room temperature
# Description: (§1) Solvency of solvents E1-E5 and C1-C8 was tested by dissolving various solid active ingredients in each solvent. The following pesticides were tested as active ingredients: trifluralin, fluroxypyr, bromoxynil octanoate, and 2-methyl-4-chlorophenoxyacetic acid (MCPA). Solvency was characterized by the weight ratio of an active ingredient in a solvent and was determined by adding 0.5 gram of active ingredient to a vial equipped with a stir bar and then charging the solvent to achieve a desired concentration. The vials were capped and placed into a water bath kept at a temperature 5 to 10° C. below the melting point of tested pesticide. The mixture was stirred in the vial for 24 hours. If the active ingredient was fully dissolved, the mixture was transferred to a room temperature water bath. If no active ingredient crystals were formed, a higher concentration of active ingredient was tested. Conversely, if active ingredient crystals were formed, a lower concentration of active ingredient was tested. Solubility was recorded as the highest concentration of active ingredient in the tested solvent with no formation of crystals. Concentrations were tested at a 5% interval. For example, if the active ingredient was dissolved at 50%, 55% would be the next concentration to be tested. Concentrations below 15 wt % were not tested.
# [2] = Solvency test, active ingredient trifluralin; conditions: wt % active ingredient in solution; highest concentration with no crystals at room temperature
# Description: as §1
# Pour point (ASTM D5950) = experiment: Pour point (ASTM D5950)
# Description: (§2) The following properties of the solvents were tested: • Kinematic viscosity at 25° C. […] The funnel containing the mixture was inverted several times. The water and solvent phases were allowed to separate for 24 hours, resulting in two distinct phases. For water solubility in solvent, the solvent layer was transferred to a sample vial and was tested for water content according to ASTM E1064. For solvent solubility in water, the water layer was transferred to a sample vial and was tested by a gas chromatography test method for solvent content. Water content, water solubility, and solvent solubility in water were not tested for solvents C2-C5.
# [3] = Kinematic viscosity at 25° C. (ASTM D7042)
# Description: as §2
# [4] = Solvency test, active ingredient MCPA; conditions: wt % active ingredient in solution; concentrations below 15 wt % not tested
# Description: as §1
# [5] = Solvency test, active ingredient fluroxypyr; conditions: wt % active ingredient in solution; highest concentration with no crystals at room temperature
# Description: as §1
# [6] = Hydrolytic stability in pH 4.5 or pH 8.5 buffer; conditions: 54° C., 14 days, 13C NMR; for Hydrolysis at pH 4.5: pH 4.5 buffer; for Hydrolysis at pH 8.5: pH 8.5 buffer
# Description: Hydrolytic stability was characterized by mixing the tested solvent with an excess of pH 4.5 or pH 8.5 buffer in a vial which was placed in a heated water bath (54° C.). After 14 days, the vial was cooled to room temperature and the content was allowed to separate into aqueous and organic (solvent) phases. The solvent phase was transferred to a clean vial and sodium sulfate was added to remove residual water. The mixture was filtered to obtain the solvent filtrate which was analyzed by ^13C NMR to measure the amount of hydrolysis products (acid or alcohol), if any.
# Hydrolytic stability for solvents E3, C1, C2, and C6-C8 was not tested. No hydrolysis is expected for aromatic solvent C2 due to lack of hydrolysable bonds.
# [7] = Density at 25° C. (ASTM D4052)
# [8] = Solvent solubility in water; conditions: 20 g solvent mixed with 20 g water, phases separated 24 hours, water layer tested by gas chromatography
# Description: as §2
# [9] = Water solubility in solvent; conditions: 20 g solvent mixed with 20 g water, phases separated 24 hours, solvent layer tested
# Description: as §2
# [10] = Water content of the solvents, Karl Fischer titration (ASTM E1064)
# Description: as §2
SMILES,"Solvency, Bromoxynil Octanoate [1] [wt %]","Solvency, Trifluralin [2] [wt %]",Pour Point (Pour point (ASTM D5950)) [°C],KV25 [3] [cSt],"Solvency, MCPA [4] [wt %]","Solvency, Fluroxypyr [5] [wt %]",Hydrolysis at pH 4.5 [6] [%],Hydrolysis at pH 8.5 [6] [%],Density at 25° C. [7] [g/mL],Solvent solubility in water [8] [wt %],Water solubility in solvent [9] [vol %],Water content [10] [ppm w/w]
"CCCCCCCCCC(=O)N(C)C [Solvent C5, linear N,N-dimethyldecanamide, reference compound]",60.2,62.4,−6,5.33,<15,62.2,<1.0,<1.0,0.876,,,
"CCC(C)OC(=O)c1ccc(C(=O)OC(C)CC)o1 (centres unmarked) [Solvent C1, Di-sec butyl furan-2,5-dicarboxylate, reference compound]",48.3,37.1,,66.27,<15,<15,,,1.047,0.003,0.699,269
"CC(=O)OCc1ccccc1 [Solvent C4, Benzyl acetate, reference compound]",72.9,61.2,−90,2.20,15.1,59.8,22.5,6.8,1.051,,,
"CCCCOC(=O)c1ccccc1 [Solvent C3, Butyl benzoate, reference compound]",69.7,62.8,−36,3.11,<15,,0.5,6.7,1.001,,,
"CC(=O)OCCCCCC(C)C [Solvent C7, isooctyl acetate]",70.9,77.3,−105,1.69,<15,60.2,12.6,<1.0,0.868,0.005,0.448,699
"CC(C)CCCCCCCOC(=O)c1ccccc1 [Solvent C6, isodecyl benzoate]",62.1,54.5,−69,9.60,<15,,,,0.949,<0.001,0.173,332
"CC(=O)OCCCCCCC(C)C [Solvent C8, isononyl acetate]",67.5,72.9,−102,2.15,<15,<15,,,0.867,<0.001,0.369,722

# Further lines, results first:
"Solvency, Bromoxynil Octanoate [1] [wt %]","Solvency, Trifluralin [2] [wt %]",Pour Point (Pour point (ASTM D5950)) [°C],KV25 [3] [cSt],"Solvency, MCPA [4] [wt %]","Solvency, Fluroxypyr [5] [wt %]",Hydrolysis at pH 4.5 [6] [%],Hydrolysis at pH 8.5 [6] [%],Density at 25° C. [7] [g/mL],Solvent solubility in water [8] [wt %],Water solubility in solvent [9] [vol %],Water content [10] [ppm w/w],SMILES
68.6,64.1,,6.53,<15,50.8,,,0.962,<0.001,0.265,113,"CC(C)CCCCCOC(=O)c1ccccc1 [Solvent E3, Isooctyl benzoate]"
68.3,66.8,−54,11.96,<15,64.8,2.7,1.7,1.042,0.007,0.394,102,"O=C(OC1CCCCC1)c1ccccc1 [Solvent E2, Cyclohexyl benzoate]"
63.5,65.0,−72,7.29,,63.0,<1.0,<1.0,0.883,0.141,2.457,589,"CN(C)C(=O)CCCCCC(C)(C)C [Solvent E5, N,N-dimethyl neodecanamide]"
68.8,69.5,−90,3.40,<15,66.0,0.3,<1.0,0.966,0.010,0.422,232,"CC(C)(C)C(=O)OCc1ccccc1 [Solvent E4, Benzyl pivalate]"
73.0,72.6,−81,3.38,<15,61.3,<1.0,3.7,0.992,0.008,0.386,499,"CCC(C)OC(=O)c1ccccc1 (centres unmarked) [Solvent E1, Secondary butyl benzoate]"
